Measurements published in patent US20120010075A1 (priority 2009, published 2012).
Read-outs that look alike come from different tables or passages of the source.

Legend:
[1] = tested on: Leptosphaeria nodorum (LEPTNO); assay: In vitro fungitoxicity of hydrazones with and without copper towards Leptosphaeria nodorum (Example 26); type: cell-based; settings: 72 h at 25° C.; for inhibition of growth at 0.05 µg/mL: Parastagonospora nodorum, 72 h, read-out: LEPTNO % Inhn. Minus Copper Observed
Phytophthora infestans = type: in vivo, Phytophthora infestans on tomato; settings: applied 24 h before inoculation, assessed 7 days after inoculation
[2] = copper-minus medium, test compound Concn. 0.05 μg/mL
[3] = copper-plus medium (CuCl2 10 μM), test compound Concn. 0.05 μg/mL
[4] = hydrazone 50 ppm with 50 μM CuCl2.2H2O, tomato late blight
[5] = compound 0.05 μg/mL, copper-minus medium
[6] = compound 0.05 μg/mL, copper-plus medium (CuCl2.2H2O)
[7] = hydrazone 50 ppm + 50 μM CuCl2.2H2O, tomato

Structure (SMILES)	inhibition of growth at 0.05 µg/mL [1, 2]	LEPTNO % Inhn. Plus Copper Observed [1, 3]	melting point	TLB % Control (Phytophthora infestans; [4])	inhibition of growth at 0.05 µg/mL [1, 5]	LEPTNO % Inhn. Plus Copper Observed [1, 6]	TLB % Control (Phytophthora infestans; [7])	LEPTNO % Inhn. Minus Copper Observed [1, 5]
Cc1cccc(C(=O)N/N=C/c2cc(Cl)cc(C(F)(F)F)c2O)c1 [Example 376]	13.6%	96.5%	199 to 201 °C	98.0%				
O=C(N/N=C/c1cccc(Cl)c1O)c1ccc([N+](=O)[O-])cc1 [Example 430]	16.6%	98.2%	284 to 287 °C	100.0%				
O=C(N/N=C/c1c(O)cc(C(F)(F)F)cc1C(F)(F)F)c1ccccc1 [Example 276]			144 to 193 °C		5.5%	97.8%	71.2%	
C/C(=N\NC(=O)c1ccccc1Cl)c1cccc([N+](=O)[O-])c1O [Example 272]			196 to 205 °C		2%	98.1%	37.0%	
O=C(N/N=C/c1cc(C(F)(F)F)cc(C(F)(F)F)c1O)c1cccc(Cl)c1 [Example 336]	16.6%	97.8%	230 to 233 °C	98.0%				
Cc1cccc(C(=O)N/N=C/c2cc(Cl)cc(Br)c2O)c1O [Example 165]			218 to 221 °C		14.9%	98.4%	88.4%	
COc1ccc(O)c(/C(C)=N/NC(=O)c2ccc(Cl)cc2)c1 [Example 267]			193 to 196 °C		5.7%	98.3%	33.0%	
Cc1ccc(C(=O)N/N=C/c2cc(C(F)(F)F)ccc2O)c(O)c1 [Example 445]	13.2%	100.0%	264 to 271 °C	90.0%				
Cc1ccc(C(=O)N/N=C/c2cc(C(F)(F)F)cc(C(F)(F)F)c2O)c(O)c1 [Example 342]	9.1%	98.3%	251 to 254 °C	86.0%				
O=C(N/N=C/c1cccc(C(F)(F)F)c1O)c1ccc([N+](=O)[O-])cc1 [Example 350]	11.3%	94.9%	253 to 255 °C	97.0%				
C/C(=N\NC(=O)c1cccc(C)c1)c1cc(Br)cc(Br)c1O [Example 541]	0%	97.5%	236 to 238 °C	93.0%				
C/C(=N\NC(=O)c1cccc(Oc2ccccc2)c1)c1ccccc1O [Example 47]			178 to 180 °C		0%	97.1%	33.0%	
O=C(N/N=C(\CCc1ccccc1)c1ccccc1O)c1c(Cl)cccc1Cl [Example 45]			204 to 208 °C		0%	96.2%	49.0%	
C/C(=N\NC(=O)c1cccc(C)c1)c1cc(Br)ccc1O [Example 289]			227 to 233 °C		0%	97.6%	45.0%	
C/C(=N\NC(=O)c1cccc(C)c1)c1cc(C)ccc1O [Example 313]	8.5%	98.5%	182 to 184 °C	28.0%				
COc1ccc(C(=O)N/N=C/c2cc(Cl)cc(Cl)c2O)c(O)c1 [Example 486]	12.8%	96.6%	267 to 269 °C	95.0%				
O=C(N/N=C/c1ccc(Cl)c(Cl)c1O)c1cccc([N+](=O)[O-])c1 [Example 360]	17.6%	96.9%	269 to 271 °C	97.0%				
O=C(N/N=C(\CCc1ccccc1)c1ccccc1O)c1ccccc1Cl [Example 49]			173 to 177 °C		14.6%	97.1%	0.7%	
C/C(=N\NC(=O)c1ccccc1Cl)c1cc(C(F)(F)F)ccc1O [Example 531]	0%	97.3%	189 to 191 °C	80.0%				
O=C(N/N=C/c1ccc(Cl)c(Cl)c1O)c1ccccc1C(F)(F)F [Example 363]	4.3%	94.7%	209 to 213 °C	92.0%				

Structure (SMILES)	inhibition of growth at 0.05 µg/mL [1, 2]	LEPTNO % Inhn. Plus Copper Observed [1, 3]	melting point	TLB % Control (Phytophthora infestans; [4])	inhibition of growth at 0.05 µg/mL [1, 5]	LEPTNO % Inhn. Plus Copper Observed [1, 6]	TLB % Control (Phytophthora infestans; [7])	LEPTNO % Inhn. Minus Copper Observed [1, 5]
Cc1cc(C)cc(C(=O)N/N=C/c2cc(Br)cc(Br)c2O)c1 [Example 110]			209 to 211 °C		19.9%	98.2%	76.4%	
O=C(N/N=C/c1cc(Cl)cc(Br)c1O)c1ccccc1C(F)(F)F [Example 418]	0%	97.3%	266 to 274 °C	93.0%				
O=C(N/N=C/c1cccc(Cl)c1O)c1ccccc1O [Example 431]	8.5%	95.1%	266 to 268 °C	91.0%				
COc1ccc(/C(C)=N/NC(=O)c2ccc(C)cc2)c(O)c1 [Example 283]			206 to 207 °C		0%	95.9%	67.0%	
O=C(N/N=C/c1cc(Cl)cc(Cl)c1O)c1cccc(OC(F)(F)F)c1 [Example 250]			180 to 182 °C		8.7%	98.1%	97.0%	
C/C(=N\NC(=O)c1ccc(C(F)(F)F)cc1)c1cc(F)cc(F)c1O [Example 581]	13.6%	98.2%	287 to 291 °C	93.0%				
Cc1cc(C)cc(C(=O)N(/N=C/c2cc(Cl)cc(Cl)c2O)C(C)(C)C)c1 [Example 211]			220 to 227 °C		7%	97.1%	16.0%	
COc1cccc(/C(C)=N/NC(=O)c2ccc(C(F)(F)F)cc2)c1O [Example 466]	2.7%	97.9%	175 to 176 °C	69.0%				
COc1ccc(O)c(/C(C)=N/NC(=O)c2cccc(Cl)c2)c1 [Example 266]			190 to 201 °C		4.5%	95.4%	28.0%	
CC(C)c1ccc(C(=O)N/N=C/c2cc(Cl)cc(Cl)c2O)cc1 [Example 42]			270 to 272 °C			93.2%	60.0%	9.2%
Cc1cc(O)c(/C=N/NC(=O)c2ccccc2)cc1Cl [Example 239]			206 to 208 °C		0.1%	97.8%	66.1%	
COc1ccc(/C(C)=N/NC(=O)c2ccccc2Cl)c(O)c1 [Example 284]			174 to 175 °C		0%	97.1%	74.0%	
O=C(N/N=C/c1cc(Cl)cc(Cl)c1O)c1cccc([N+](=O)[O-])c1 [Example 248]			234 to 237 °C		12.4%	96.3%	98.0%	
C/C(=N\NC(=O)c1ccccc1Br)c1cccc(Cl)c1O [Example 502]	4.2%	97.2%	178 to 183 °C	85.0%				
C/C(=N\NC(=O)c1ccc(Br)cc1)c1cccc(Cl)c1O [Example 500]	9.2%	93.2%	226 to 232 °C	80.0%				
Cc1ccc(/C=N/NC(=O)c2ccccc2)c(O)c1 [Example 234]			179 to 182 °C		0%	94.3%	72.9%	
C/C(=N\NC(=O)c1ccc(C)cc1)c1cc(Br)cc(Br)c1O [Example 542]	0%	95.8%	258 to 259 °C	100.0%				
C/C(=N\NC(=O)c1ccc(C)cc1)c1cc(C)ccc1O [Example 314]	0%	97.7%	206 to 208 °C	8.8%				
O=C(N/N=C/c1cc(C(F)(F)F)ccc1O)c1cccc([N+](=O)[O-])c1 [Example 441]	0%	100.0%	218 to 220 °C	96.0%				
COc1ccc(/C(C)=N/NC(=O)c2ccccc2Br)c(O)c1 [Example 476]	0%	93.9%	205 to 206 °C	69.0%				
